From paper PMC9127750, “Structure-based design of CDC42 effector interaction inhibitors for the treatment of cancer” (Cell reports, 2022)

System: WM3248 melanoma cells, 486 antibodies
Test: Reverse phase protein arrays (RPPA);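 as to RPPA ACC1.R.C: ratio of treated to vehicle (0 µM) normalized linear protein signal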;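 as to RPPA AMPK.a2 pS345.R.V: ratio of treated to vehicle (0 µM) normalized linear protein signal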;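 as to RPPA AMPKa pT172.R.C: ratio of treated to vehicle (0 µM) normalized linear protein signal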;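 as to RPPA ASNS.R.V: ratio of treated to vehicle (0 µM) normalized linear protein signal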
Assay type: cell-based, Human
Settings: 5 uM
Description: Pellets were snap frozen in liquid nitrogen and shipped to MD Anderson Cancer Center core RPPA facility for RPPA analysis (Table S5). Three biological replicates for each sample were generated.
Nomenclatures on the RPPA heatmaps: name_of_antibody.species_of_antibody.status_of_antibody. V - antibody validated; C - validation of antibody in progress; Q - antibody nonspecific; E – under evaluation; antibodies raised in M - mouse, G - goat, R - rabbit, or T - rat.

## CN(C)c1cccc(Nc2cc(-c3ccccc3)nc(C3CCNCC3)n2)c1 [ARN22089, N1,N1-dimethyl-N3-(6-phenyl-2-(piperidin-4-yl)pyrimidin-4-yl)benzene-1,3-diamine]
Average
  RPPA EMA.M.C: 1.019
  RPPA ENY2.M.C: 0.945
  RPPA ER.a.R.V: 1.031
  RPPA ER.a_pS118.R.V: 1.194
  RPPA ERCC1.R.C: 0.974
  RPPA ERCC5.R.C: 0.991
  RPPA ERRalpha.R.V: 1.000
  RPPA EVI1.R.V: 0.976
  RPPA Elk1_pS383.R.C: 1.029
  RPPA Enolase.2.R.V: 1.011
  RPPA EphA2.R.V: 0.963
  RPPA EphA2_pS897.R.C: 0.963
  RPPA Erk5.R.V: 1.061
  RPPA Ets.1.R.V: 0.910
  RPPA FABP5.R.C: 0.807
  RPPA FAK.R.C: 1.005
  RPPA FAK_pY397.R.V: 1.015
  RPPA FANCD2.R.V: 1.011
  RPPA FASN.R.V: 0.986
  RPPA FGF.basic.R.C: 0.990
  RPPA FN14.R.C: 1.084
  RPPA FOXM1.R.V: 1.005
  RPPA FTO.R.V: 0.940
  RPPA Fibronectin.R.V: 0.998
  RPPA FoxO3a_pS318_S321.R.C: 0.976
  RPPA G6PD.R.V: 0.982
  RPPA GATA3.M.V: 0.852
  RPPA GATA6.R.V: 0.999
  RPPA GCLC.R.C: 1.009
  RPPA GCLM.R.V: 0.973
  RPPA GCN5L2.R.V: 1.028
  RPPA GGPS1.M.V: 0.917
  RPPA GRB2.R.V: 1.049
  RPPA GRB7.R.V: 1.025
  RPPA GSK.3a.b.M.V: 0.977
  RPPA GSK.3a.b_pS21_S9.R.V: 0.983
  RPPA Gab2.R.V: 1.019
  RPPA Gli1.R.C: 1.002
  RPPA Gli3.R.C: 0.909
  RPPA Glucocorticoid.Receptor.R.V: 1.019
  RPPA Glutamate.D1.2.R.V: 0.907
  RPPA Glutaminase.R.C: 0.909
  RPPA Granzyme.B.R.V: 1.098
  RPPA Grp75.R.C: 0.983
  RPPA Gys_pS641.R.V: 1.021
  RPPA H2AX_pS139.R.C: 1.019
  RPPA H2AX_pS140.M.C: 0.923
  RPPA HER2.M.V: 0.962
  RPPA HER2_pY1248.R.V: 1.025
  RPPA HER3_pY1289.R.C: 0.983
  RPPA HES1.R.V: 1.187
  RPPA X4E.BP1.R.V: 1.200
  RPPA X4E.BP1_pS65.R.V: 1.011
  RPPA X4E.BP1_pT37_T46.R.V: 1.016
  RPPA X14.3.3.zeta.R.V: 0.987
  RPPA X14.3.3βR.V: 1.006
  RPPA X14.3.3εM.C: 0.962
  RPPA X53BP1.R.V: 0.978
  RPPA b.Actin.R.C: 0.929
  RPPA b.Catenin.R.V: 0.915
  RPPA b.Catenin_pT41_S45.R.V: 1.024
  RPPA c.Abl.R.V: 1.084
  RPPA c.Abl_pY412.R.C: 1.056
  RPPA c.IAP2.R.C: 1.003
  RPPA eEF2.R.C: 0.913
  RPPA eEF2K.R.V: 0.916
  RPPA eIF4E.R.V: 1.118
  RPPA eIF4E_pS209.R.V: 1.025
  RPPA eIF4G.R.C: 1.047
  RPPA level HLA.DQA1.R.V: 0.948
  RPPA level HLA.DR.DP.DQ.DX.R.C: 0.928
  RPPA level HMHA1.R.V: 1.133
  RPPA level HNRNPK.R.V: 0.988
  RPPA level HSP27.M.C: 1.008
  RPPA level HSP27_pS82.R.V: 1.113
  RPPA level HSP60.R.V: 1.017
  RPPA level HSP70.R.C: 1.003
  RPPA level Hexokinase.I.R.C: 0.909
  RPPA level Hexokinase.II.R.V: 0.992
  RPPA level Hif.1αR.C: 1.051
  RPPA level Histone.H3.R.V: 0.963
  RPPA level Histone.H3_pS10.R.V: 0.786
  RPPA level IGF1R_pY1135_Y1136.R.V: 1.035
  RPPA level IGFBP2.R.V: 0.875
  RPPA level IGFBP3.M.V: 0.957
  RPPA level IGFRb.R.C: 1.062
  RPPA level IL.6.R.C: 1.050
  RPPA level IMP3.R.C: 0.997
  RPPA level IR.b.R.C: 1.131
  RPPA level IRF.1.R.V: 1.000
  RPPA level IRF.3.R.V: 1.007
  RPPA level IRS1.R.V: 1.078
  RPPA level IRS2.R.C: 0.971
  RPPA level JAB1.M.C: 0.973
  RPPA level JNK2.R.V: 0.889
  RPPA level JNK_pT183_Y185.R.C: 1.026
  RPPA level Jak2.R.V: 1.011
  RPPA level KAP1.R.V: 0.915
  RPPA level KEAP1.R.V: 0.914
  RPPA level LC3A.B.R.C: 0.914
  RPPA level LCN2.R.V: 1.165
  RPPA level LDHA.R.C: 0.789
  RPPA level LRP6_pS1490.R.V: 1.065
  RPPA level Lasu1.R.V: 0.902
  RPPA level Lck.R.V: 0.925
  RPPA level Lyn.R.V: 0.878
  RPPA level MACC1.R.V: 1.021
  RPPA level MAPK_pT202_Y204.R.C: 1.079
  RPPA level MCT4.R.V: 0.958
  RPPA level MDM2_pS166.R.V: 0.899
  RPPA level MEK1.R.V: 1.584
  RPPA level MEK1_pS217_S221.R.V: 1.125
  RPPA level MERIT40.R.C: 0.975
  RPPA level METTL3.R.V: 0.920
  RPPA level MIF.R.C: 1.010
  RPPA level MIG6.R.V: 1.024
  RPPA level MITF.R.V: 0.967
  RPPA level MLH1.M.V: 0.943
  RPPA level MLKL.R.V: 0.967
  RPPA level MMP2.R.V: 0.995
  RPPA level MMP14.R.V: 0.964
  RPPA level MR1.M.C: 1.033
  RPPA level MRAP.R.C: 1.061
  RPPA level MSH2.R.C: 0.932
  RPPA level MSH6.R.C: 0.925
  RPPA level MSI2.R.C: 1.004
  RPPA level MTCO1.M.V: 0.944
  RPPA level MTSS1.M.C: 0.998
  RPPA level Mcl.1.R.V: 1.076
  RPPA level MelanA.R.C: 1.025
  RPPA level Melanoma.gp100.R.C: 1.061
  RPPA level Merlin.R.C: 0.894
  RPPA level Midkine.R.V: 1.001
  RPPA level Mitofusin.1.R.V: 1.053
  RPPA level Mitofusin.2.R.V: 1.013
  RPPA level mTOR.R.V: 1.016
  RPPA level mTOR_pS2448.R.C: 1.025
  c.Jun_pS73.R.V RPPA level: 0.983
  c.Kit.R.V RPPA level: 0.895
  c.Met_pY1234_Y1235.R.V RPPA level: 1.062
  c.Myc.R.C RPPA level: 1.010
  cGAS.R.V RPPA level: 1.020
  cdc2_pY15.R.C RPPA level: 1.200
B.1
  RPPA A.Raf.R.V: 0.964
  RPPA A.Raf_pS299.R.C: 1.002
  RPPA ACC1.R.C: 1.160
  RPPA ACC_pS79.R.V: 0.974
  RPPA ACSL1.R.V: 1.052
  RPPA ACVRL1.R.C: 1.027
  RPPA ADAR1.M.V: 0.990
  RPPA ALKBH5.R.V: 1.061
  RPPA AMPK.a2_pS345.R.V: 0.982
  RPPA AMPKa.R.C: 1.010
  RPPA AMPKa_pT172.R.C: 0.679
  RPPA ARID1A.R.C: 0.955
  RPPA ASNS.R.V: 1.050
  RPPA ATM.R.V: 1.017
  RPPA ATM_pS1981.R.V: 1.023
  RPPA ATP5A.M.C: 1.186
  RPPA ATP5H.R.V: 1.203
  RPPA ATR.R.V: 1.027
  RPPA ATRX.R.C: 0.816
  RPPA ATR_pS428.R.C: 0.959
